Experimental data taken from patent US20090311685A1, “NMU-GHSR1b/NTSR1 oncogenic signaling pathway as a therapeutic target for lung cancer” (Oncotherapy Science, Inc, priority 2006, published 2009).

Columns and labels:
COS-7 cells = assay: Autocrine assay: growth of cells cultured with NMU-25 (MTT, colony formation); assay type: cell-based; details: 0.3 to 15 μM, vs BSA control, 144 hours
Procedure: To confirm the autocrine function of NMU in the growth of mammalian cells, COS-7 cells were cultured in medium containing the active form of a 25-amino-acid polypeptide of NMU (NMU-25; Sigma-Aldrich Co.) at final concentrations of 0.3 to 15 μM. The same concentrations of BSA served as controls. The peptides/proteins were added every 48 hours for 6 days. At the 144-hours time point, cell proliferation was evaluated by MTT and colony-formation assays.

[1] = target: T1, endogenous GHSR1b and NTSR1 on LC319 cells (Homo sapiens, UniProt P30989+Q92847); assay: Ligand-receptor binding assay with Cy5-labeled NMU-25; details: 10-fold excess unlabeled NMU-25
T1 construct: endogenous in cells; host or cells: LC319
Procedure: (§1) To confirm the binding of NMU-25 to endogenous candidate receptors on the NSCLC cell, a receptor-ligand binding assay using LC319 and PC14 cells that express GHSR1b and NTSR1, but not NMU1R and NMU2R were performed. Specifically, trypsinized cells were seeded onto a 96-well (with black wall and clear bottom) microtiter plates 24 hours prior to the assay. The medium was removed and the cells were incubated with CyS-labeled NMU-25 peptide (1 μM) with or without the addition of 10-fold excess unlabeled NMU-25 peptide as the competitor. The plate was incubated in dark for 24 hours at 37° C. and then scanned on 8200 Cellular Detection System (Applied Biosystems) to quantify the amount of CyS fluorescence probe bound to the surface of each cell. (15) Immunocytochemistry for Internalized Receptors

[2] = target: T2, endogenous GHSR1b and NTSR1 on PC14 cells (Homo sapiens, UniProt P30989+Q92847); assay: as above; details: 10-fold excess unlabeled NMU-25
T2 construct: endogenous in cells; host or cells: PC14
Procedure: as §1

LC319 cells [3] = assay: Measurement of cAMP levels (cAMP EIA); assay type: cell-based, human; details: for cAMP production: final concentrations of 3 to 100 μM
Procedure: (§2) Trypsinized LC319, REF-LC-AI, NCI-H358 and SK-MED-1 cells were seeded onto a 96-well microtiter plate (5.0×10^4 cells) and cultured in appropriate medium supplemented with 10% FCS for 24 hours, and then the medium was changed to serum free/1 mM IBMX (isobutylmethylxanthine) 20 min prior to the assay. Next, the cells were incubated with individual concentrations of peptides (NMU-25, GHRL, or NTS) for 20 min and cAMP levels of the cells were measured using cAMP EIA System (GE Healthcare Bio-sciences).

NCI-H358 cells = assay: Measurement of cAMP levels (cAMP EIA); assay type: cell-based, human; details: expressing either of the receptors, 3 to 50 μM
Procedure: as §2

RERF-LC-AI cells = assay: Measurement of cAMP levels (cAMP EIA); assay type: cell-based, human; details: both receptors at low levels, 3 to 50 μM
Procedure: as §2

SK-MES-1 cells = assay: Measurement of cAMP levels (cAMP EIA); assay type: cell-based, human; details: expressing either of the receptors, 3 to 50 μM
Procedure: as §2

GHSR1b/NTSR1 [4] = target: T3, GHSR1b/NTSR1 (Homo sapiens, UniProt P30989+Q92847, A200T); assay: Immunocytochemistry for internalized receptors, transfected COS-7 cells; assay type: cell-based; details: COS-7 cells with introduced receptors, 10 μM, time-dependent
T3 construct: expressed in transfected cells; host or cells: COS-7
Procedure: To investigate the association of NMU-25 with its candidate receptors, GHSR1b and NTSR1, the following experiments were performed. The entire coding region of each of the receptor genes was amplified by RT-PCR using primers: […]
The products were digested with EcoRI and BamHI and cloned into appropriate sites of p3XFLAG-CMV10 vector (Sigma-Aldrich Co.). COS-7 cells were transfected with FLAG-tagged GHSR1b or NTSR1 expression plasmid using FuGENE 6 Transfection Reagent as described above. The cells subjected to internalization assays were exposed to NMU-25 (10 μM) for 120 min. The cells were then fixed with 4% paraformaldehyde solution for 15 min at 37° C., and washed with PBS(−). Specimens were incubated in PBS(−) containing 0.1% Triton X-100 for 10 min and subsequently washed with PBS(−). Prior to primary antibody reaction, the cells were incubated in CAS-BLOCK (ZYMED Laboratories Inc.) for 10 min to block non-specific antibody binding. Then, the cells were incubated with both rabbit polyclonal and anti-GHSR antibody and goat polyclonal anti-NTSR1 antibody. The antibodies were stained with both anti-rabbit secondary antibody conjugated to Alexa Fluor 488 (Molecular Probes) and anti-goat secondary antibody conjugated to Alexa Fluor 594 (Molecular Probes). […] Images were viewed and assessed using confocal microscopy (TCS SP2 AOBS; Leica Microsystems).

GHSR1b/NTSR1 [5] = target: T4, GHSR1b/NTSR1 (Homo sapiens, UniProt P30989+Q92847); assay: Immunocytochemistry for internalized receptors, endogenous receptors in LC319 cells; assay type: cell-based
T4 construct: endogenous in cells; host or cells: LC319

FOXM1 = assay: Induction of FOXM1 expression by NMU ligand-receptor signaling in LC319 cells; assay type: cell-based, human; details: 25 μM, vs BSA control
Procedure: Total RNA was extracted from cultured cells and clinical tissues using Trizol reagent (Life Technologies, Inc.) according to the manufacturer's protocol. Extracted RNAs and normal human tissue poly(A) RNAs were treated with DNaseI (Nippon Gene) and were reverse-transcribed using oligo(dT)20 primer and SuperSpcript II reverse transcriptase (Invitrogen). Semiquantitative RT-PCR experiments were carried out with the following synthesized gene-specific primers and beta-actin (ACTB)-specific primers as internal control: […]

LC319 cells [6] = assay: Intracellular Ca^2+ mobilization assay (FLIPR); assay type: cell-based, human
Procedure: Trypsinized LC319 cells were seeded onto poly-D-lysine coated 384-well black-wall, clear-bottom microtiter plate (1.0×10^4 cells/ml) 24 hours prior to the assay. The cells were loaded for 1 hour with 4 μM Fluo-3-AM fluorescent indicator dye in assay buffer (Hank's balanced salt solution, 20 mM HEPES, 2.5 mM probenecid), washed three times with assay buffer, and then incubated for 10 min at room temperature before detection on fluorometric imaging plate reader (FLIPR; Molecular Devices). Fluorescence data of Ca^2+ release were collected in real-time at 1 sec intervals for the first 65 sec and at 3 sec intervals for additional 300 sec after individual concentrations of peptide (NMU-25, […], or NTS) treatment. Maximum change in fluorescence over baseline was measured to determine the response of the cells to the individual peptide stimulations.

NSCLC cells = assay: Competition of NMU-induced cAMP production; assay type: cell-based
NMU1R-expressing cells = target: T5, NMU1R-expressing cells (Homo sapiens, UniProt Q9HB89); details: cited from earlier work
T5 construct: host or cells: NMU1R-expressing cells
T5 sequence (Q9HB89 1-426): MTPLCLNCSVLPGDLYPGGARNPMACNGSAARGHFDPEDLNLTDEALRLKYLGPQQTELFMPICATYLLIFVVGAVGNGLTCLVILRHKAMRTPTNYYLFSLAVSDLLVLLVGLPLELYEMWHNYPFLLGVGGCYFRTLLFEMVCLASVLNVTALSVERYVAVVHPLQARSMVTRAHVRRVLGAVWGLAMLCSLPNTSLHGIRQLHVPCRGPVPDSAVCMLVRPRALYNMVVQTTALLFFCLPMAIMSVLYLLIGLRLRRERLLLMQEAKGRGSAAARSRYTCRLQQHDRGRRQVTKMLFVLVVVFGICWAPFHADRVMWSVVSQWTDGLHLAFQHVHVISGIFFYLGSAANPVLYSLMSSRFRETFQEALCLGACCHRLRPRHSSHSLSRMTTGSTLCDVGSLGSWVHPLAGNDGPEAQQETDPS

T2 sequence (Q92847 1-289 isoform Q92847-2): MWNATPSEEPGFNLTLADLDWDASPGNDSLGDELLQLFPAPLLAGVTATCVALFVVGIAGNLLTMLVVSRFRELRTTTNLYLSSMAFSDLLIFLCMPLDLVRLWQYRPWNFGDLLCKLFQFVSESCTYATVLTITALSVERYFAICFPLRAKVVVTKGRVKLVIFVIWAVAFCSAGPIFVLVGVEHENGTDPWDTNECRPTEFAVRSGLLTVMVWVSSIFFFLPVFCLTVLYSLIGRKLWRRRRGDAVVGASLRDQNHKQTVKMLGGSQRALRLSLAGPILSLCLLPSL
T2 sequence (P30989 whole entry): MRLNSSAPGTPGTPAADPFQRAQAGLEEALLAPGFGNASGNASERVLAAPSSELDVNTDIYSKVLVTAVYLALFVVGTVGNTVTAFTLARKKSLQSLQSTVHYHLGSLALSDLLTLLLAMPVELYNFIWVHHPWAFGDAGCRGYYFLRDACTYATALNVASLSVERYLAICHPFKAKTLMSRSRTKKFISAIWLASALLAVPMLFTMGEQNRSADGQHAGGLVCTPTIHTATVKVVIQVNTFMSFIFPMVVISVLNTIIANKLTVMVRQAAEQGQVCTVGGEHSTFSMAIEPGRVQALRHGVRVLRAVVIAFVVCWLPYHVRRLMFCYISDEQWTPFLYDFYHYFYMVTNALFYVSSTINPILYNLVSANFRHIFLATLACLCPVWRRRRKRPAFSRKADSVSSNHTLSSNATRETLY
T1 sequence (Q92847 1-289 isoform Q92847-2): as the sequence (Q92847 1-289 isoform Q92847-2) above
T1 sequence (P30989 whole entry): as the sequence (P30989 whole entry) above
T4 sequence (Q92847 1-289 isoform Q92847-2): as the sequence (Q92847 1-289 isoform Q92847-2) above
T4 sequence (P30989 whole entry): as the sequence (P30989 whole entry) above
T3 sequence (Q92847 1-289 isoform Q92847-2, stated change not applied): as the sequence (Q92847 1-289 isoform Q92847-2) above
T3 sequence (P30989 whole entry A200T): as the sequence (P30989 whole entry) above, with A200T counted along it

Substance | cell growth (MTT assay) (COS-7 cells) | cell growth (colony-formation assay) (COS-7 cells) | binding activity of Cy5-labeled NMU-25 with unlabeled competitor [1] | binding activity of Cy5-labeled NMU-25 with unlabeled competitor [2] | cAMP production (LC319 cells [3]) | intracellular cAMP production by NMU-25 (FIG. 3A) (LC319 cells [3]; high levels of both receptors, 3 to 50 μM) | intracellular cAMP production by NMU-25 (FIG. 3C) (NCI-H358 cells) | intracellular cAMP production by NMU-25 (FIG. 3B) (RERF-LC-AI cells) | intracellular cAMP production by NMU-25 (FIG. 3D) (SK-MES-1 cells) | subcellular distribution of GHSR1b and NTSR1 after stimulation (GHSR1b/NTSR1 [4]) | subcellular distribution of GHSR1b and NTSR1 after stimulation (GHSR1b/NTSR1 [5]) | expression of FOXM1 (FOXM1) | intracellular Ca^2+ flux / mobilization (LC319 cells [6]) | NMU-induced cAMP production (NSCLC cells) | displacement of 125I-labeled rat NMU-binding (NMU1R-expressing cells)
NMU-25: active form of a 25-amino-acid polypeptide of NMU (Sigma-Aldrich Co.) (FRVDEEFQSPFASQSRGYFLFRPRN) | enhanced cell growth in a dose-dependent manner | enhanced cell growth in a dose-dependent manner | inhibited | inhibited | Enhancement of cAMP production | marked and reproducible cAMP accumulation | did not show detectable cAMP production | not significant but low cAMP production | did not show detectable cAMP production | co-internalized | induced co-internalization | enhanced expression of FOXM1 | – | – | –
ghrelin (GSSFLSPEHQRVQQRKESKKPPAKLQPR) [GHRL, 28-amino-acid peptide, known ligand of GHSR] | – | – | – | – | did not enhance | – | – | – | – | – | – | – | not the treatment with GHRL caused the mobilization response | competitively inhibited | did not displace
